Measurements from US5130302A, “Boronated nucleoside, nucleotide and oligonucleotide compounds, compositions and methods for using same” (Boron Bilogicals, Inc., priority 1989, dated 1992).
≈ marks a conversion by molar mass, not a printed value. Where two headings read alike, the source gives them in different places. One block for each molecule: values may come before it.

What was measured:
[1] = system: L1210 lymphoid leukemia cells; assay: Cytotoxicity, L1210 lymphoid leukemia cells; format: cell-based; details: Mus musculus, read-out: ED50 (cytotoxicity), L1210
Description: (§1) More specifically, the cytotoxic activity of the boron adducts of the present invention was tested on the following neoplastic cell lines:
1. L1210 lymphoid leukemia cells, R. Geran et al., Cancer Chemotherapy Reports 3, 7 (1972).(grown in RPMI+15% FBS+antibiotics).
(§2) The cytotoxic screens were conducted according to NIH protocols, see E. Huang et al., J. Pharm. Sci. 61, 108 (1972), with 10^4 cells, growth medium, antibiotics and drugs from 0.5 to 100 μg/ml final concentration. For the L1210, Hela-S, amd Tmolt, (i.e. the suspended cells), the incubations were conducted in sterile test tubes in a final volume of 1 ml for 72 hr at 37° C. in a CO2 incubator. The cells on the third day were still in log growth phase. The number of cells/ml are determined using trypan blue exclusion and a hemocytometer. See, e.g., R. Geran, supra. For solid tumors there is plated out in wells 1×10^4 cells with 1 ml of medium+antibiotics and the other components of growth. When the controls have converged (≈95%) then the density of the cells is estimated and the ED50 values calculated.

P388 = assay: Cytotoxicity, P388; format: cell-based
Description: as §2

[2] = system: Tmolt acute lymphoblastic T cell leukemia; assay: Cytotoxicity, Tmolt acute lymphoblastic T cell leukemia; format: cell-based; details: for IC50: T-cell, read-out: ED50 (cytotoxicity), Tmolt; for activity in T molt-3 screen: in words
Description: as §1
2. Tmolt^S acute lymphoblastic T cell leukemia, S. Schreiber and N. Ikemoto, Tett. Lett 29, 3211 (1988) (grown in RPMI - 1640+10% FBS).
as §2

[3] = system: SW480 human colorectal carcinoma; assay: Cytotoxicity, colon adenocarcinoma SW480 human colorectal carcinoma; format: cell-based
Description: as §1
3. Colon adenocarcinoma SW480 human colorectal carcinoma. A. Leibovitz et al., Cancer Res. 36, 4562 (1976) (grown in L15+10% FBS).
as §2

[4] = system: KB epidermoid oral nesopharnyx; assay: Cytotoxicity, KB epidermoid oral nasopharynx; format: cell-based; details: Homo sapiens, read-out: ED50 (cytotoxicity), KB
Description: 6. KB epidermoid oral nesopharnyx. R. Geran, supra: H. Eagle, Proc. Soc. Expt.
Biol. 89, 362 (1955)(grown in EMEM +5% calf serum).
as §2

[5] = system: Lung bronchogenic MB-9812; assay: Cytotoxicity, lung bronchogenic MB-9812; format: cell-based; details: read-out: ED50 (cytotoxicity), Lung Bronchogenic
Description: 4. Lung bronchogenic MB-9812, S. Aronson et al., Expt. Cell Res. 61, 1 (1970) (grown in EMEM+10% FBS+NEAA).
as §2

Hela-S = assay: Cytotoxicity, Hela-S cervical carcinoma suspended; format: cell-based; details: Homo sapiens, read-out: ED50 (cytotoxicity), Hela-S
Description: 7. Hela-S, ATCC-CCL 2.2, cervical carcinoma suspended, S. Schreiber and N. Ikemoto, supra; T. Puck et al., J. Exp. Med. 103. 273 (1956) (grown in Joklik+5% FBS, Ham's F12 +5% FBS).
as §2

[6] = system: Human glioma cell EH 118 MG; assay: Cytotoxicity, human glioma cell EH 118 MG; format: cell-based; details: read-out: ED50 (cytotoxicity), Glioma
Description: 9. Human glioma cell EH 118 MG transformed stain of Rous sarcoma virus, J. Lutton et al., J. Biol. Chem. 254, 11181 (1979) (grown in DMEM-H+10% FCS).
as §2

Human Osteosarcoma TE418 = assay: Cytotoxicity, human osteosarcoma TE418; format: cell-based
Description: 5. Human Osteosarcoma TE418. H. Smith et al., Int. J. Cancer 17, 219 (1976) (grown in DMEM+10% FBS).
as §2

serum cholesterol levels = assay: Antihyperlipidemic activity, serum cholesterol; format: in vivo, male CF1 mice; details: mice; for Hypolipidemic: Cholesterol Inhibition, % inhibition: 8 mg/kg/day, intraperitoneal for 16d
Description: (§3) Compounds to be tested were suspended in 1% aqueous carboxymethylcellulose,homogenized and administered to male CF1 mice (25 g) intraperitoneally for 16d. On days 9 and 16, blood was obtained by tail vein bleeding, and the serum was separated by centrifugation for three minutes. The serum cholesterol levels were determined by a modification of the Liebermann--Burchard reaction in accordance with known techniques. See A. Ness, et al., Clin. Chim. Acta 10, 229 (1964). Serum triglyceride levels were determined with a commercial kit, the Fisher Hycel Triglyceride Test Kit, for a different group of animals bled on day 16.

[7] = system: Serum triglyceride levels; assay: Antihyperlipidemic activity, serum triglyceride; format: in vivo, male CF1 mice; details: mice; for Hypolipidemic: Triglyceride Inhibition, % inhibition: 8 mg/kg/day, intraperitoneal, bled on day 16
Description: as §3

inflammatory response = assay: Anti-inflammatory activity, carrageenan-injected hind foot; format: in vivo, CF1 male mice; details: 8 mg/kg/day; intraperitoneal, 3 hours and 30 minutes prior to carrageenan; mice
Description: CF1 male mice (~25 g) were administered test drugs at 5-40 mg/kg in 0.05% Tween 80--H2 O intraperitoneally 3 hours prior to and 30 minutes prior to the injection of 0.2 ml of 1% carrageenan in 0.9% saline into the plantar surface of the right hind foot. Saline was injected into the left hind foot, which serves as a base line. After 3 hours, both feet were excised at the tibiotarsal (ankle) joint according to standard procedures. See C. Winter et al., Proc. Soc. Expt. Biol Med. 544, 111 (1962); A. Roszkawski et al., J. Pharm. Exp. Ther. 179, 114 (1971). Control mice afforded a 78±3 mg increase in paw weight.

[8] = Stability in aqueous medium by HPLC; format: physicochemical; details: for stability in aqueous medium: in words
Description: By HPLC, compounds 3a, 3b, and 3d in aqueous medium (0.01 M TEAAc) are >94% stable over a period of 168 h. […], however, is >50% decomposed during this period.

[9] = Mus musculus, P388, read-out: ED50 (cytotoxicity), P388
[10] = Homo sapiens, SW480, read-out: ED50 (cytotoxicity), Adeno Carcinoma SW480
[11] = Mus musculus, P388; read-out: ED50 (cytotoxicity), P388
[12] = Homo sapiens, SW480; read-out: ED50 (cytotoxicity), Adeno Carcinoma SW480
[13] = Osteosarcoma TE418, read-out: ED50 (cytotoxicity), Osteo sarcoma

Structure (SMILES): CC(C)[Si](OC[C@H]1O[C@@H](n2cnc3c(N)[n+]([BH2-]C#N)cnc32)C[C@@H]1O[Si](C(C)C)(C(C)C)C(C)C)(C(C)C)C(C)C [Compound 2c, 3', 5'-O-Bis(triisopropylsilyl)-2'-deoxyadenosine-N1-cyanoborane]
IC50 ([1]; L1210, 72 h): 6.86 µg/mL (≈ 11.4 µM) | IC50 (P388; [9]): 7.46 µg/mL (≈ 12.4 µM) | IC50 ([2]; 72 h): 1.88 µg/mL (≈ 3.12 µM) | IC50 [3, 10]: 2.87 µg/mL (≈ 4.76 µM) | IC50 [4]: 5.79 µg/mL (≈ 9.61 µM) | IC50 [5]: 5.58 µg/mL (≈ 9.26 µM) | IC50 (Hela-S; HeLa, 72 h): 3.42 µg/mL (≈ 5.67 µM) | IC50 [6]: 4.99 µg/mL (≈ 8.28 µM)

Structure (SMILES): CC(C)[Si](OC[C@H]1O[C@@H](n2c[n+]([BH2-]C#N)c3c(=O)[nH]cnc32)C[C@@H]1O[Si](C(C)C)(C(C)C)C(C)C)(C(C)C)C(C)C [Compound 2b, 3', 5-O-Bis(triisopropylislyl)-2'-deoxyinosine-N7-cyanoborane]
IC50 ([1]; L1210, 72 h): 4 µg/mL (≈ 6.63 µM) | IC50 (P388; [9]): 7.31 µg/mL (≈ 12.1 µM) | IC50 ([2]; 72 h): 6.49 µg/mL (≈ 10.7 µM) | IC50 [3, 10]: 2.57 µg/mL (≈ 4.26 µM) | IC50 [4]: 5.29 µg/mL (≈ 8.76 µM) | IC50 [5]: 6.2 µg/mL (≈ 10.3 µM) | IC50 (Hela-S; HeLa, 72 h): 3.26 µg/mL (≈ 5.4 µM) | IC50 [6]: 6.21 µg/mL (≈ 10.3 µM)

Structure (SMILES): CC(C)[Si](OC[C@H]1O[C@@H](n2ccc(N)[n+]([BH2-]C#N)c2=O)C[C@@H]1O)(C(C)C)C(C)C [Compound 4]
IC50 ([1]; L1210, 72 h): 2.92 µg/mL (≈ 6.91 µM) | IC50 ([2]; 72 h): 2.34 µg/mL (≈ 5.54 µM) | IC50 [3, 10]: 2.71 µg/mL (≈ 6.42 µM) | IC50 [4]: 4.07 µg/mL (≈ 9.64 µM) | IC50 [5]: 5.58 µg/mL (≈ 13.2 µM) | IC50 (Hela-S; HeLa, 72 h): 3.63 µg/mL (≈ 8.59 µM) | IC50 (Human Osteosarcoma TE418; read-out: ED50 (cytotoxicity), Osteo sarcoma): 6.62 µg/mL (≈ 15.7 µM) | IC50 [6]: 3.43 µg/mL (≈ 8.12 µM)

Structure (SMILES): CCOC(=O)C(C)(C)Oc1ccc(Cl)cc1 [clofibrate, reference compound]
Hypolipidemic: Cholesterol Inhibition, % inhibition (Standard) (serum cholesterol levels; 130 mg/kg/day): 13% | Hypolipidemic: Triglyceride Inhibition, % inhibition (Standard) ([7]; standard (clofibrate at 130 mg/kg/day)): 25%

stability in aqueous medium [8]: good stability
Structure (SMILES): N#C[BH2-][n+]1cnc2c(ncn2[C@H]2C[C@H](O)[C@@H](CO)O2)c1N [Compound 3c, 2'-Deoxyadenosine-N1-cyanoborane]
IC50 ([1]; L1210, 72 hr at 37° C.): 3.68 µg/mL (≈ 12.7 µM) | IC50 (P388; [11]): 5.96 µg/mL (≈ 20.5 µM) | IC50 ([2]; Tmolt, 72 hr at 37° C.): 1.36 µg/mL (≈ 4.69 µM) | activity in T molt-3 screen [2]: potent activity | IC50 [3, 12]: 2.82 µg/mL (≈ 9.72 µM) | activity in human colorectal adenocarcinoma screen ([3]; in words): potent activity | IC50 [4]: 3.12 µg/mL (≈ 10.8 µM) | IC50 ([5]; Lung bronchogenic MB-9812): 5.26 µg/mL (≈ 18.1 µM) | IC50 (Hela-S; Hela-S, 72 hr at 37° C.): 2.35 µg/mL (≈ 8.1 µM) | IC50 (Human Osteosarcoma TE418; [13]): 7.39 µg/mL (≈ 25.5 µM) | IC50 ([6]; Glioma EH 118 MG): 6.88 µg/mL (≈ 23.7 µM) | Antiinflammatory Activity, % inhibition (inflammatory response): 22% | Hypolipidemic: Cholesterol Inhibition, % inhibition (serum cholesterol levels): 44% | Hypolipidemic: Triglyceride Inhibition, % inhibition [7]: 37%

remaining at 168 h ([8]; 0.01 M TEAAc, period of 168 h, HPLC, read-out: stable in aqueous medium): > 94% | stability in aqueous medium [8]: good stability
Structure (SMILES): N#C[BH2-][n+]1c(N)ccn([C@H]2C[C@H](O)[C@@H](CO)O2)c1=O [Compound 3d, 2' Deoxycytidine-N3-cyanoborane]
IC50 ([1]; L1210, 72 hr at 37° C.): 2.61 µg/mL (≈ 9.81 µM) | IC50 (P388; [11]): 3.17 µg/mL (≈ 11.9 µM) | IC50 ([2]; Tmolt, 72 hr at 37° C.): 1.13 µg/mL (≈ 4.25 µM) | activity in T molt-3 screen [2]: potent activity | IC50 [3, 12]: 2.96 µg/mL (≈ 11.1 µM) | activity in human colorectal adenocarcinoma screen ([3]; in words): potent activity | IC50 [4]: 5.46 µg/mL (≈ 20.5 µM) | IC50 ([5]; Lung bronchogenic MB-9812): 3.73 µg/mL (≈ 14 µM) | IC50 (Hela-S; Hela-S, 72 hr at 37° C.): 3.37 µg/mL (≈ 12.7 µM) | IC50 (Human Osteosarcoma TE418; [13]): 4.63 µg/mL (≈ 17.4 µM) | IC50 ([6]; Glioma EH 118 MG): 4.39 µg/mL (≈ 16.5 µM) | Antiinflammatory Activity, % inhibition (inflammatory response): 52% | Hypolipidemic: Cholesterol Inhibition, % inhibition (serum cholesterol levels): 38% | Hypolipidemic: Triglyceride Inhibition, % inhibition [7]: 23%
